Assay results taken from US20250228832A1, “METHODS FOR TREATING DISORDERS AMELIORATED BY MUSCARINIC RECEPTOR ACTIVATION” (KARUNA THERAPEUTICS, INC., priority 2022, published 2025).
Read-outs that look alike come from different tables or passages of the source.

How the values were obtained:
human M4 receptor = target: T1, human M4 receptor (Homo sapiens, UniProt P08173); assay: SPA GTP (GTPgS) binding curve shift assay, M4; assay type: biochemical
T1 construct: expressed in transfected cells
T1 sequence (P08173 1-479): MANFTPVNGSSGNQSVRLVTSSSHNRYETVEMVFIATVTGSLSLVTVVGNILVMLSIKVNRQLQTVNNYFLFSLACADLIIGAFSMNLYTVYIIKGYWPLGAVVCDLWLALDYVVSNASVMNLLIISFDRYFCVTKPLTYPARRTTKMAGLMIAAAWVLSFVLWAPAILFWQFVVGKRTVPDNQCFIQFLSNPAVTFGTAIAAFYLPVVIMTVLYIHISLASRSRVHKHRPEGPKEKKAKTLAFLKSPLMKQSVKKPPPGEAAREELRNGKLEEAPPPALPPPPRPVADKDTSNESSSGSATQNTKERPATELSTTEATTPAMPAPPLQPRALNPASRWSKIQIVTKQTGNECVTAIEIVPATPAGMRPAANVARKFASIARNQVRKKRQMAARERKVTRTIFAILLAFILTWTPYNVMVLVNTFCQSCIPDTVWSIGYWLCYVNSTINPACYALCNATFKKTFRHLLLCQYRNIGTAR
Description: (§1) Membranes were prepared for GTPgS binding assays from CHO-K1 cells stably expressing human M2 or human M4 receptors. Cells were grown in 5-layer cell culture flasks. Cells were washed with 50 mL of PBS and then dissociated with 0.05% trypsin. Dissociated cells were then collected by centrifugation at 650×g for 8 min at 4° C. Pellets were rewashed in PBS by centrifugation and resuspended in 30 mL of 20 mM HEPES, 10 mM EDTA, pH 7.4. After sitting on ice for 30 min, membranes were collected by centrifugation at 50000×g for 15 min at 4° C., resuspended in 30 mL of 20 mM HEPES, 0.1 mM EDTA, pH 7.4, and collected again by centrifugation. Pellets were then washed twice by centrifugation in 30 mL of 20 mM HEPES, pH 7.4, and stored at −80° C. until the day of the assay. On the day of the assay, pellets were thawed on ice and resuspended in 1 mL of 20 mM HEPES, pH 7.4, 10 mM MgCl2, and 100 mM NaCl using Dounce homogenization.
(§2) According to Promega guidelines, membrane protein concentration was determined by BCA protein assay (Promega, Madison, WI).
(§3) On the day of the assay, serial dilutions of test PAM compounds were brought up in assay buffer (20 mM HEPES, 10 mM MgCl2; see Table 4 for NaCl concentrations) at four times the final assay concentration. […] of membrane homogenates (containing […] of membrane protein) were prepared in assay buffer supplemented with GDP at 4× final assay concentration (see Table 4 for GDP concentrations) and dispensed into 96 well polypropylene, U-bottom Greiner plates. Membrane plates were incubated for 10 min at room temperature with gentle shaking. Then, 25 μL of test compounds were added to assay plates. Plates were then incubated, with shaking, for an additional 10-15 min. Then, 25 μL of diluted agonists serially diluted in assay buffer at 4× final assay concentration was added to assay plates. Plates were then incubated, with shaking, for an additional 10-15 min. Next, […] of 0.4 nM ^35S-GTP (Perkin Elmer, Waltham, MA) in assay buffer was added to assay mixtures. The binding reaction was left on the shaker for 1 h at room temperature. Membranes in assay reactions were then transferred to GF/C filter plates (UniFilter, Perkin Elmer) and washed three times using FilterMate Harvester (Perkin Elmer) with cold assay buffer containing no GDP. Filter plates were then dried at 40° C. overnight, and […] of Beta Plate Scintillation liquid was added. Plates were top and bottom sealed before being read on the TopCount scintillation counter (Perkin Elmer, Waltham, MA).
(§4) Raw data for all assays was transmitted directly from plate readers into the Beacon database for processing. All assay plates contained positive and negative control wells for data normalization and scaling. […] All control wells contained DMSO at a final assay concentration that matched the test compound wells.
(§5) For GTPgS assays, the negative control wells were defined as 0% response. The highest response in a plate was scaled to 1, representing 100% response. Data from test compound wells was scaled to these controls and are reported as % control values. This was done to allow for subsequent GraphPad cooperativity analysis, setting the maximal response at no more than 1.

human M2 receptor = target: T2, human M2 receptor (Homo sapiens, UniProt P08172); assay: SPA GTP (GTPgS) binding curve shift assay, M2; assay type: biochemical; details: M2
T2 sequence (P08172 1-466): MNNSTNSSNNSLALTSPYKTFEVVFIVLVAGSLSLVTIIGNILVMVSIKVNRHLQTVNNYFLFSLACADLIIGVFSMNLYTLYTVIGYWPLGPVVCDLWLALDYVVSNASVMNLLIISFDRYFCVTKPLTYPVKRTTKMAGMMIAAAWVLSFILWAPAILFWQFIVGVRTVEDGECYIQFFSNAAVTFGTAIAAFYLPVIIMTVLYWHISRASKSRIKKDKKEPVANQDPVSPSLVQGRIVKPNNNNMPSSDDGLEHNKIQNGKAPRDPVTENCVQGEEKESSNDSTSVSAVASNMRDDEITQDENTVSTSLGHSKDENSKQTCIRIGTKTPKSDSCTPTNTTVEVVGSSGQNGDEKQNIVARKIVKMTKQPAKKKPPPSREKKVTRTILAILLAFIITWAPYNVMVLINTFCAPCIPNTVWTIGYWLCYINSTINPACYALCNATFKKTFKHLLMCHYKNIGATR
Description: as §1, §2, §3, §4, §5

[1] = Emraclidine concentration 41.2 nM, read-out: Emax
[2] = Emraclidine concentration 123 nM, read-out: Emax
[3] = Emraclidine concentration 370 nM
[4] = Emraclidine concentration 1110 nM, read-out: Emax
[5] = Emraclidine concentration 3330 nM, read-out: Emax
[6] = MK-4710 concentration 41.2 nM, read-out: Emax
[7] = MK-4710 concentration 123 nM, read-out: Emax
[8] = MK-4710 concentration 1110 nM, read-out: Emax
[9] = MK-4710 concentration 3330 nM, read-out: Emax

Molecule `CCCCCOc1nsnc1C1=CCCCN1C` [KTX-517, 3-(1-methyl-1,4,5,6-tetrahydropyridin-2-yl)-4-(pentyloxy)-1,2,5-thiadiazole] has an EC50 (human M4 receptor; Emraclidine concentration 0 nM) of 1.6 nM, an Emax (human M4 receptor; Emraclidine concentration 0 nM) of 2.6% and an Emax (human M4 receptor; [1]) of 17.8%. For the same molecule, the Emax (human M4 receptor; [2]) was 29.6%, the Emax at […] (human M4 receptor; [3]) was 46.5% and the Emax (human M4 receptor; [4]) was 62.4%. For the same molecule, the Emax (human M4 receptor; [5]) was 66.8%, the Emax at […] (human M4 receptor; Emraclidine concentration […]) was 10.6% and the “α (cooperativity, affinity shift)” value (human M4 receptor; M4 PAM Emraclidine) was 3.0. For the same molecule, the “β (cooperativity, efficacy shift)” value (human M4 receptor; M4 PAM Emraclidine) was 32.3, the “τ (agonist pharmacology)” value (human M4 receptor; M4 PAM Emraclidine) was 0.6 and the “α (cooperativity, affinity shift)” value (human M4 receptor; M4 PAM MK-4710) was 1.0. For the same molecule, the “β (cooperativity, efficacy shift)” value (human M4 receptor; M4 PAM MK-4710) was 1395.0, the “τ (agonist pharmacology)” value (human M4 receptor; M4 PAM MK-4710) was 0.8 and the EC50 (human M4 receptor; MK-4710 concentration 0 nM) was 548 nM. For the same molecule, the Emax (human M4 receptor; MK-4710 concentration 0 nM) was 12.6%, the EC50 (human M4 receptor; MK-4710 concentration 41.2 nM) was 2.3 nM and the Emax (human M4 receptor; [6]) was 27.3%. It also gave an EC50 (human M4 receptor; MK-4710 concentration 123 nM) of 1.4 nM, an Emax (human M4 receptor; [7]) of 34.3% and an EC50 (human M4 receptor; MK-4710 concentration 370 nM) of 2.1 nM. It also gave an Emax at […] (human M4 receptor; MK-4710 concentration 370 nM) of 53.4%, an EC50 (human M4 receptor; MK-4710 concentration 1110 nM) of 2.3 nM and an Emax (human M4 receptor; [8]) of 75.1%. The EC50 (human M4 receptor; MK-4710 concentration 3330 nM) was 1.5 nM, the Emax (human M4 receptor; [9]) was 87.1% and the EC50 (human M4 receptor; MK-4710 concentration […]) was 8.7 nM. It also gave an Emax at […] (human M4 receptor; MK-4710 concentration […]) of 20.4%, an EC50 (human M2 receptor; Emraclidine concentration 0 nM) of 18.5 nM and an Emax (human M2 receptor; Emraclidine concentration 0 nM) of 35.6%. The Emax (human M2 receptor; [1]) was 57.9%, the Emax (human M2 receptor; [2]) was 51.1% and the Emax at […] (human M2 receptor; [3]) was 52.6%. For the same molecule, the Emax (human M2 receptor; [4]) was 65.9%, the Emax (human M2 receptor; [5]) was 79.2% and the Emax at […] (human M2 receptor; Emraclidine concentration […]) was 44.8%. For the same molecule, the “α (cooperativity, affinity shift)” value (human M2 receptor; M4 PAM Emraclidine) was 1.0, the “β (cooperativity, efficacy shift)” value (human M2 receptor; M4 PAM Emraclidine) was 18.1 and the “τ (agonist pharmacology)” value (human M2 receptor; M4 PAM Emraclidine) was 0.1. The “α (cooperativity, affinity shift)” value (human M2 receptor; M4 PAM MK-4710) was 1.0, the “β (cooperativity, efficacy shift)” value (human M2 receptor; M4 PAM MK-4710) was 5.0 and the “τ (agonist pharmacology)” value (human M2 receptor; M4 PAM MK-4710) was 0.1. It also gave an EC50 (human M2 receptor; MK-4710 concentration 0 nM) of 14.3 nM, an Emax (human M2 receptor; MK-4710 concentration 0 nM) of 45.1% and an EC50 (human M2 receptor; MK-4710 concentration 41.2 nM) of 11.9 nM. It also gave an Emax (human M2 receptor; [6]) of 53.2%, an EC50 (human M2 receptor; MK-4710 concentration 123 nM) of 14.8 nM and an Emax (human M2 receptor; [7]) of 55.6%. The EC50 (human M2 receptor; MK-4710 concentration 370 nM) was 13.1 nM, the Emax at […] (human M2 receptor; MK-4710 concentration 370 nM) was 59.1% and the EC50 (human M2 receptor; MK-4710 concentration 1110 nM) was 15.8 nM. For the same molecule, the Emax (human M2 receptor; [8]) was 70.6%, the EC50 (human M2 receptor; MK-4710 concentration 3330 nM) was 10.3 nM and the Emax (human M2 receptor; [9]) was 78.7%. For the same molecule, the EC50 (human M2 receptor; MK-4710 concentration […]) was 25.7 nM and the Emax at […] (human M2 receptor; MK-4710 concentration […]) was 60.6%.
`CCCCCCCOc1nsnc1C1=CCCCN1C` [KTX-593, 3-(heptyloxy)-4-(1-methyl-1,4,5,6-tetrahydropyridin-2-yl)-1,2,5-thiadiazole] showed an EC50 (human M4 receptor; Emraclidine concentration 0 nM) of 12.7 nM, an Emax (human M4 receptor; Emraclidine concentration 0 nM) of 14.3% and an Emax (human M4 receptor; [1]) of 24.5%. For the same molecule, the Emax (human M4 receptor; [2]) was 43.9%, the Emax at […] (human M4 receptor; [3]) was 60.1% and the Emax (human M4 receptor; [4]) was 76.8%. The Emax (human M4 receptor; [5]) was 84%, the Emax at […] (human M4 receptor; Emraclidine concentration […]) was 24.2% and the “α (cooperativity, affinity shift)” value (human M4 receptor; M4 PAM Emraclidine) was 2.4. For the same molecule, the “β (cooperativity, efficacy shift)” value (human M4 receptor; M4 PAM Emraclidine) was 56.3, the “τ (agonist pharmacology)” value (human M4 receptor; M4 PAM Emraclidine) was 1.5 and the “α (cooperativity, affinity shift)” value (human M4 receptor; M4 PAM MK-4710) was 1.0. For the same molecule, the “β (cooperativity, efficacy shift)” value (human M4 receptor; M4 PAM MK-4710) was 1051018.0, the “τ (agonist pharmacology)” value (human M4 receptor; M4 PAM MK-4710) was 381.2 and the EC50 (human M4 receptor; MK-4710 concentration 0 nM) was 44.7 nM. The Emax (human M4 receptor; MK-4710 concentration 0 nM) was 14.0%, the Emax (human M4 receptor; [6]) was 35.9% and the Emax (human M4 receptor; [7]) was 41.8%. The Emax at […] (human M4 receptor; MK-4710 concentration 370 nM) was 59.7%, the Emax (human M4 receptor; [8]) was 80% and the Emax (human M4 receptor; [9]) was 88.1%. The Emax at […] (human M4 receptor; MK-4710 concentration […]) was 26%, the EC50 (human M2 receptor; Emraclidine concentration 0 nM) was 35.7 nM and the Emax (human M2 receptor; Emraclidine concentration 0 nM) was 39.8%. It also gave an Emax (human M2 receptor; [1]) of 52.6%, an Emax (human M2 receptor; [2]) of 52.2% and an Emax at […] (human M2 receptor; [3]) of 50.1%. It also gave an Emax (human M2 receptor; [4]) of 67.5%, an Emax (human M2 receptor; [5]) of 75.1% and an Emax at […] (human M2 receptor; Emraclidine concentration […]) of 48.7%. The “α (cooperativity, affinity shift)” value (human M2 receptor; M4 PAM Emraclidine) was 1.0, the “β (cooperativity, efficacy shift)” value (human M2 receptor; M4 PAM Emraclidine) was 1370.0 and the “τ (agonist pharmacology)” value (human M2 receptor; M4 PAM Emraclidine) was 1.6. For the same molecule, the “α (cooperativity, affinity shift)” value (human M2 receptor; M4 PAM MK-4710) was 1.0, the “β (cooperativity, efficacy shift)” value (human M2 receptor; M4 PAM MK-4710) was 10.3 and the “τ (agonist pharmacology)” value (human M2 receptor; M4 PAM MK-4710) was 0.0. For the same molecule, the EC50 (human M2 receptor; MK-4710 concentration 0 nM) was 19.6 nM, the Emax (human M2 receptor; MK-4710 concentration 0 nM) was 38.7% and the Emax (human M2 receptor; [6]) was 50.1%. For the same molecule, the Emax (human M2 receptor; [7]) was 50.2%, the Emax at […] (human M2 receptor; MK-4710 concentration 370 nM) was 61.4% and the Emax (human M2 receptor; [8]) was 62.2%. For the same molecule, the Emax (human M2 receptor; [9]) was 77.6% and the Emax at […] (human M2 receptor; MK-4710 concentration […]) was 57%.
